Experimental data reported in US5298502A, “Method and composition for photodynamic treatment and detection of tumors” (priority 1991, dated 1994).

Experiments:
[1] = system: DBA/2 Ha mice with SMT-F subcutaneous tumors; test: Proto IX content of tissues of tumor-bearing mice fed the agent (Example 6); type: in vivo; details: for concentration of Proto IX in tissue, Adrenal / concentration of Proto IX in tissue, Intestine / concentration of Proto IX in tissue, Kidneys / concentration of Proto IX in tissue, Liver / concentration of Proto IX in tissue, Tumor / Proto IX Mean Cps per gram, Intestine: 2000 ppm in feed; for Proto IX Mean Cps per gram, Adrenal / Proto IX Mean Cps per gram, Kidneys / Proto IX Mean Cps per gram, Liver / Proto IX Mean Cps per gram, Tumor / Weight of Tumor as excised: 2000 ppm in feed Days 2-10, sacrificed Day 10 (6j Day 7); for Proto IX Mean Cps per gram, Intestine: samples diluted with 3 parts basic acetone to one part sample
Procedure: In this Example the enzyme-inhibiting agents were added to the feed of tumor-bearing mice; for some of the mice, used as a control, no agent was added to the feed. The mice were then sacrificed and their kidneys, intestines, adrenal glands, liver and tumor were removed and analyzed for their content of Proto IX. The following enzyme-inhibiting agents were employed: [drawing 10]
More particularly, the mice were DBA/2 Ha mice which had been injected with SMT-F subcutaneous tumors on Day 0 in the right shoulder. The mice, individually housed, received untreated Purina Rodent Chow 5001 Mash on Day 1; thereafter on Days 2 through 10 the mice received the same Mash treated with 2000 ppm of the inhibiting agent being tested (or, for the controls, the same untreated Mash). The treatment of the Mash was effected by blending it with a small amount of an acetone solution of the agent to be tested. The mice were then sacrificed on Day 10, except for the mouse treated with the agent designated as 6j; the latter was sacrificed on Day 7. The tissues were refrigerated at 4° C. overnight, then blotted dry, and the fresh weight of each tissue sample was recorded. The tissues were then homogenized in 5 mL, or lo mL in the cases of intestines and liver, of acetone-0.1 N NH4 OH (9:I, v/v). The homogenates were then centrifuged at 1500 g and the supernatants were analyzed on a SPEX FAII2 spectrofluorometer; excitation 400 nm, emission 630 nm wavelengths, the optima for Proto IX. Proto IX accumulation was determined as CPS (fluorescent counts per second emitted) per gram of tissue. The results are tabulated below (results are averages for two mice for each treatment, except for treatments with agents 6f, 6h, 6i and 6j in each of which only one mouse was treated): […]

HeLa cells [2] = test: Tetrapyrrole accumulation in treated HeLa cells (Example 1); type: cell-based, human; details: 3 days in the dark
Procedure: HeLa cells (a human tumor cell line commonly employed for tumor research and obtained from the American Type Culture Collection), in logarithmic growth phase (having been cultured at 37° C. for five days in one-liter Falcon tissue culture flasks), were washed in phosphate buffered saline (PBS). A 0.25% solution of trypsin in PBS (2 mL) was added, and, after several minutes, the cells were gently removed from the flask and placed into 110 mL of a 25 mM solution of Hepes in Minimum Essential Medium (MEM) supplemented with 10% v/v inactivated calf serum, 1.1 mL of a 200 mM solution of glutamine in 0.85% saline solution, and 11,000 units of penicillin/11,000 mcg streptomycin.
Then, 5.0 mL aliquots of the resulting resuspended cell culture were each placed into a 50 mL Falcon tissue culture flask and (except for the control) mixed with the treating agent. The aliquots were then incubated in the dark at 37° C. for three days. The cells were then removed and extracted under green light in the following manner:
Cells were removed from the bottom of the flask with the addition of 0.8 mL of a 0.25% solution of trypsin in PBS. After 1 hour of incubation in the dark, cells and medium were removed from the flasks, placed into round bottom centrifuge tubes, and then subjected to two rounds of freeze-thaw conditions to disrupt the cells and allow for extraction.
Ten mL of basic acetone (90% acetone:10% of 0.1 N NH4 OH) was then added to each tube, and the tubes were centrifuged to remove protein and cell debris. Five mL of water was added to the supernatant, followed by 0.5 mL of a saturated aqueous solution of NaCl. The pH was then adjusted to 6.8 by the dropwise addition of 2 M KH2 PO4. The aqueous acetone extract was then loaded onto a C8 Baker Prep column. The columns were dried and then washed with 2 mL of water. The tetrapyrroles were eluted with 2×1.5 mL volumes of 90/10 CH3 OH/H2 O. Extracts were then quantified on a spectrofluorometer.
Agent A was supplied as a filter-sterilized 250 mM solution in water, pH 6.5. Agents B, C, D, and E were supplied as 50 mM solutions in acetone. Acetone was also added to the control to provide a concentration of 0.2% v/v therein. The amounts of the agents added to the cell cultures were such as to give the concentrations specified in the Table 1 below. The amounts of the tetrapyrrole protoporphyrin IX ("Proto IX") produced are shown in that Table.

HeLa cells [3] = test: Growth inhibition and Proto IX accumulation in HeLa cells (Example 2); type: cell-based, human; details: for Amount of Proto IX: average amount per 10^6 cells; for inhibition at 100 µM: 4 days in the dark
Procedure: HeLa cells, in logarithmic growth phase having been cultured for 6 days in six one-liter Falcon tissue culture flasks at 37° C.), were washed in phosphate buffered saline (PBS). A 0.25% solution of trypsin in PBS was added, and, after several minutes, the cells were gently removed and placed into 110 mL of a 25 mM solution of Hepes in Minimum Essential Medium (MEM), supplemented with 10% v/v inactivated calf serum, 1.1 mL of a 200 mM solution of glutamine in 0.85% saline solution, and 11,000 units of penicillin/11,000 mcg streptomycin.
Aliquots (5.0 mL each) of the resuspended cell culture were placed into 50 mL Falcon tissue culture flasks, with or without herbicide, and incubated in the dark at 37° C. for 4 days, the herbicide being added in dilute acetone solution as in Example 1. Acetone was also added to the controls to provide a concentration of acetone of 0.2% v/v therein. The amount of herbicide was such as to provide the concentrations specified in Table 2 below.
Extraction: The media from each of the flasks were placed in glass round bottom tubes, while the cells adhering to the bottom of the flasks were loosened by the addition of 0.5 mL of a 0.25% solution of trypsin in PBS, and after several minutes at 37° C., then washed from the flasks and recombined with their media. Aliquots of 100 μL were then removed from each cell suspension to determine cell density. The remaining 5.4 mL of cell suspension was then sonified for 30 minutes to disrupt the cells.
Ten mL of basic acetone (90% acetone:10% 0.1 N NH4 OH) was then added to each tube, and the tubes were centrifuged to remove protein and cell debris. Five mL of water was added to the supernatant, followed by 0.5 mL of a saturated aqueous solution of NaCl. The pH was then adjusted to 6.8 by the dropwise addition of 2 M KH2 PO4. The aqueous acetone extract was then loaded onto a C8 Baker Prep column. The columns were dried and then washed with 2 mL of water. The tetrapyrroles were eluted with 3 mL of 90/10 CH3 OH/H2 O. As in Example 1, all these extraction procedures were carried out substantially entirely under non-protoporphrin IX-exciting light (e.g. green light) or in the dark (e.g. in opaque covered containers). The fluorescence of the extracts was then determined on a SPEX spectrofluorometer. Protoporphyrin IX ("Proto IX") accumulation was quantified utilizing predetermined extinction coefficients.

HeLa cells [4] = test: Proto IX in HeLa cells and culture medium, cell growth observations (Example 8); type: cell-based, human; details: 100 μM agent, compared to the control; for inhibition at 100 µM: Homo sapiens, HeLa, read-out: inhibiting effect on cell growth (rough observations)
Procedure: In a manner similar to Examples 1 and 2, cultures of HeLa cells were incubated in the presence of 100 μM of various treating agents, listed below. The agent was added in dilute solution in dimethylsulfoxide (DMSO),and the controls contained 0.2% DMSO v/v. After such incubation the culture medium was poured off, removing it from the cells, the cells were loosened from the culture flasks by addition of 0.25% W/v trypsin Which remained in contact With the cells for 20 minutes at 37° C., after which a fluorometric medium was added to the flask. The fluorometric medium was the same as that described in Example 7 except that its pH was 6.5; this medium also acted as an extractant. The resulting extract was analyzed for proto IX content. The separated culture medium was also analyzed fluorometrically for Proto IX content. The pairs of percentages given, next to each treating agent, indicate the amount of Proto IX produced in the presence of that treating agent relative to the amount produced by the control in the same experiment; the first number of each pair relates to the concentration of Proto IX in the culture medium and the second number relates to the concentration in the cells. [drawing 12]

[5] = Homo sapiens, HeLa, 96 h, 100 μM agent

## CC(C)Oc1cc(-n2nc(C(C)(C)C)oc2=O)c(Cl)cc1Cl [Agent 6d]
[1]
  concentration of Proto IX in tissue, Adrenal: 4 ug of Proto IX per gram of tis
  concentration of Proto IX in tissue, Intestine: 51 ug of Proto IX per gram of tis
  concentration of Proto IX in tissue, Kidneys: 117 ug of Proto IX per gram of tis
  concentration of Proto IX in tissue, Liver: 14 ug of Proto IX per gram of tis
  concentration of Proto IX in tissue, Tumor: 18 ug of Proto IX per gram of tis
  Proto IX Mean Cps per gram, Adrenal: 443 Cps per gram × 10^3
  Proto IX Mean Cps per gram, Kidneys: 12865 Cps per gram × 10^3
  Proto IX Mean Cps per gram, Liver: 1581 Cps per gram × 10^3
  Proto IX Mean Cps per gram, Tumor: 2006 Cps per gram × 10^3
  Weight of Tumor as excised: 294 mg
  Proto IX Mean Cps per gram, Intestine: 5565 Cps per gram × 10^3

## CC(C)Oc1cc(-n2c(=O)n3n(c2=S)CCCC3)c(F)cc1Cl [Agent 6e]
[1]
  concentration of Proto IX in tissue, Adrenal: 12 ug of Proto IX per gram of tis
  concentration of Proto IX in tissue, Intestine: 19 ug of Proto IX per gram of tis
  concentration of Proto IX in tissue, Kidneys: 8 ug of Proto IX per gram of tis
  concentration of Proto IX in tissue, Liver: 8 ug of Proto IX per gram of tis
  concentration of Proto IX in tissue, Tumor: 8 ug of Proto IX per gram of tis
  Proto IX Mean Cps per gram, Adrenal: 1331 Cps per gram × 10^3
  Proto IX Mean Cps per gram, Kidneys: 915 Cps per gram × 10^3
  Proto IX Mean Cps per gram, Liver: 876 Cps per gram × 10^3
  Proto IX Mean Cps per gram, Tumor: 837 Cps per gram × 10^3
  Weight of Tumor as excised: 165 mg
  Proto IX Mean Cps per gram, Intestine: 2069 Cps per gram × 10^3

## NCC(=O)CCC(=O)O [Agent A, 5-amino levulinic acid, reference compound]
HeLa cells [2]; 5000 μM agent
  Amount of Proto IX: 4.2 pmol
  Fluorescence Emission cps 400/630: 41842 cps

## CCOC(=O)C(C)Oc1ccc(Oc2cc(-n3nc(C)n(C(F)F)c3=O)c(F)cc2Cl)cc1 (stereo not shown) [Agent C]
HeLa cells [3]; 1 μM agent
  Amount of Proto IX: 0.19 pmol
HeLa cells [3]; 10 μM agent
  Amount of Proto IX: 0.57 pmol
HeLa cells [3]; 100 μM agent
  Amount of Proto IX: 4.41 pmol
HeLa cells [3]; Homo sapiens, HeLa, 96 h, 1 μM agent, percent of control, read-out: Relative % proto IX
  activity at 1 µM: 86%
HeLa cells [3]; Homo sapiens, HeLa, 96 h, 10 μM agent, percent of control, read-out: Relative % proto IX
  activity at 10 µM: 259%
HeLa cells [3]; [5]
  inhibition at 100 µM: 52%
HeLa cells [3]; Homo sapiens, HeLa, 1 μM agent, negative values indicate that growth occurred
  inhibition at 1 µM: -26%
HeLa cells [3]; Homo sapiens, HeLa, 10 μM agent, negative values indicate that growth occurred
  inhibition at 10 µM: -15%
HeLa cells [2]; 100 μM agent
  Amount of Proto IX: 3.5 pmol
  Fluorescence Emission cps 400/630: 33477 cps

## C#CCN1C(=O)COc2cc(F)c(-n3ncc(=O)n(C)c3=O)cc21 [Agent D]
HeLa cells [2]; 100 μM agent
  Amount of Proto IX: 1.1 pmol
  Fluorescence Emission cps 400/630: 10551 cps

## Cn1c(=O)cnn(-c2ccc(Cl)cc2F)c1=O [Agent E]
HeLa cells [2]; 100 μM agent
  Amount of Proto IX: 0.9 pmol
  Fluorescence Emission cps 400/630: 8967 cps

## CC(C)Oc1cc(-n2nc(C(C)(C)C)oc2=O)c(Cl)cc1Cl [Agent F]
HeLa cells [3]; 100 μM agent
  Amount of Proto IX: 2.71 pmol
HeLa cells [3]; [5]
  inhibition at 100 µM: 106%

## C#CCOc1cc(N2C(=O)C(C)=C(C)C2=O)c(F)cc1Cl [Compound 8ab]
HeLa cells [4]
  effect on cell growth (rough observations): lethal

## C#CCOc1cc(N2C(=O)C3CCCCC3C2=O)c(F)cc1Cl (stereo not shown) [Compound 8ac]
HeLa cells [4]
  inhibition at 100 µM: 50%

## Cc1nc2ccccc2n1Cc1c(F)c(F)c(F)c(F)c1F [Compound 8ad]
HeLa cells [4]
  effect on cell growth (rough observations): lethal

## CC1(C)Cc2c(Br)ccc(OC(=O)N3CCCC3)c2O1 [Compound 8ae]
HeLa cells [4]
  effect on cell growth (rough observations): lethal

## CCS(=O)(=O)Nc1cc(-n2nnn(-c3ccc([N+](=O)[O-])cc3)c2=O)c(F)cc1Cl [Compound 8af]
HeLa cells [4]
  effect on cell growth (rough observations): lethal

## CCOC(=O)C(C)Oc1ccc(Cn2c(C)nn(-c3cc(OC)c(Cl)cc3F)c2=O)cc1 (stereo not shown) [Compound 8ag]
HeLa cells [4]
  inhibition at 100 µM: 25%

## C#CCOc1cc(N=C2SCC(=O)N2C)c(F)cc1Cl [Compound 8ah]
HeLa cells [4]
  effect on cell growth (rough observations): lethal

## CC(C)Oc1cc(-n2oc(=O)n(C)c2=O)c(F)cc1Cl [Compound 8ai]
HeLa cells [4]
  inhibition at 100 µM: 50%

## COc1ccc(OC)c(CNC(=O)c2ccc(Cl)cc2)c1 [Compound 8aj]
HeLa cells [4]
  inhibition at 100 µM: 25%

## O=C(Nc1ccc(Cl)cc1)C(F)(F)Sc1ccccc1 [Compound 8ak]
HeLa cells [4]
  inhibition at 100 µM: 50%

## CCOC(=O)C(C)OC(=O)c1cc(Oc2ccc(C(F)(F)F)cc2Cl)ccc1[N+](=O)[O-] (stereo not shown) [Compound 8an]
HeLa cells [4]
  inhibition at 100 µM: 50%

## COC(=O)c1cc(Oc2ccc(Cl)cc2Cl)ccc1[N+](=O)[O-] [Compound 8ap]
HeLa cells [4]
  inhibition at 100 µM: 50%

## O=[N+]([O-])c1ccc(Oc2ccc(Cl)cc2Cl)cc1 [Compound 8ar]
HeLa cells [4]
  inhibition at 100 µM: 25%

## C#CCOc1cc(-n2ncc(=O)n(C)c2=O)c(F)cc1Cl [Compound 8t]
HeLa cells [4]
  inhibition at 100 µM: 50%

## C#CCOc1cc(N2N=CCN(C)C2=O)c(F)cc1Cl [Compound 8u]
HeLa cells [4]
  inhibition at 100 µM: 60%
